Series [1] in a line: Administration of cromolyn to rats: serum pharmacokinetics by HPLC. In kind it is in vivo, Sprague-Dawley rats. The protocol: Male Sprague-Dawley rats weighing 225-275 grams were fasted for 24 hours. Rats were anesthized by intra-muscular injection with ketamine and thorazine. Experimental groups were dosed by oral gavage or by intravenous injection. Blood samples were collected serially via the tail artery. Serum obtained from whole blood was acidified and cromolyn extracted with ethyl acetate. The ethyl acetate was added to phosphate buffer or back extraction of cromolyn. Pharmacokinetic parameters were determined from extracted serum by HPLC.

The next series deals with wheal and flare reaction. Nature of the series: Wheal and flare reaction after intracutaneous injection of codeine/histamine or allergen/histamine. The conditions noted are these: stimulated with codeine. It is filed as in vivo, human. The method, then:
From the literature there are indications that nasal and lung mast cells are more sensitive to cromolyn. […] Healthy subjects received codeine/histamine to induce wheal and flare reaction, and allergic subjects received allergen/histamine to induce wheal and flare reaction.
Wheal and flare reaction was read 15 min. after the injections of codeine/histamine or allergen/histamine, traced by pen onto transparent cellophane and the length and width of the reaction was measured. Wheal and flare reaction was measured for Group 1 (healthy subjects) after intracutaneous injection of codeine/histamine before the morning dose on day 1, at 45 minutes after the morning dose on days 1, 2, 4, 6, 8 and 10, and at 4 and 8 hours after the morning dose on days 2, 4 and 10. Wheal and flare reaction was measured for Group 2 (subjects with allergies) after injection with allergen/histamine before the morning dose on day 1, at 60 minutes after the morning dose on days 4 and 10, and at 8 hours after the morning dose on day 4.

Series [2] is described as follows: Multiple dose study (twice daily for ten days): plasma pharmacokinetics of cromolyn and SNAC. The protocol:
Two groups of human males were defined: group 1 consisted of 12 healthy male volunteers, and group 2 had 12 allergic male volunteers. […] The dosing regimen is illustrated in Table 7 below.
Each subject received oral dosing of the study medication twice a day for nine days. On the last day (i.e., day 10), only the morning dose was administered. The capsules were administered with up to 200 mL of water to the subjects in an upright position. The first dose of each day was administered following an overnight fast, and the second dose of each day was administered at least 1 hour before a meal or 4 hours after a meal. No food was allowed for at least 4 hours before the oral dosing.
Pharmacodynamics were measured for Group 1 and 2 by measuring the length and width of the wheal and flare reaction, and permanent records were generated by marking on transparent tapes and/or by photographs. For Group 2 only, pharmacodynamics were also measured by VAS scores and PNIF measurements before and after nasal provocation test.

Series [3] has as its system airway resistance of the sheep after challenge with ascaris. Nature of the series: Airway resistance after ascaris challenge in sheep given oral cromolyn.
Description: A control formulation without cromolyn was also administered to an additional group. The biological effect of the cromolyn was assessed using changes in airway resistance of the sheep after challenge with ascaris.
For series [4] the following is noted: cited from earlier work.
For series [5] the following is noted: cited from earlier work. This is another data set of the same source.
Series [6] in a line: Single escalating dose study of Cromolyn/SNAC capsules: plasma pharmacokinetics of cromolyn and SNAC. The conditions noted are these: with SNAC. The protocol:
This study was a randomized, open label, oral, single escalating dose administration study in healthy, fasted volunteers.
The study was carried out in two parts. […] Safety and pharmacokinetic measures were collected and evaluated following each dose.
On day one of each study treatment period, medication (capsules) was administered following an 8-hour overnight fast. The capsules were swallowed with up to 120 mL of water to the subjects in an upright position.
The process could be summarized as follows: First, sieve SNAC powder through a screen, or delump it using a pestle/mortar.

Series [7] in a line: Single dose study: safety and tolerability. In kind it is in vivo, human. The conditions noted are these: SNAC administered alone.
Description: Cromolyn sodium was orally administered to healthy human subjects in a study designed to evaluate the safety, tolerability, oral absorption and pharmacokinetics data following various doses of cromolyn orally administered in combination with the delivery agent SNAC as capsules. […] This study was a randomized, open label, oral, single escalating dose administration study in healthy, fasted volunteers.
On day one of each study treatment period, medication (capsules) was administered following an 8-hour overnight fast. The capsules were swallowed with up to 120 mL of water to the subjects in an upright position. After each dosing, safety, and pharmacokinetic measures were taken, and cromolyn concentrations were evaluated.
Setting [8] is: serum cromolyn, Cromolyn 1.5 mg/kg IV.

On to “5,5′-[(2-hydroxy-1,3-propanediyl)bis-(oxy)]4-oxo-4H-1-benzopyran-2-carboxylic acid [cromolyn]”, for which, in series [1] (control group, cromolyn alone), the serum cromolyn concentrations entry was “No detectable”. Besides, in series [1] (intravenous cromolyn 1.5 mg/kg), the “area under the serum concentration-time curve (AUC)” value came to 20.4 µg·min/mL, the “peak serum concentration (Cmax)” value was 1300 ng/mL and the “time of peak serum concentration (Tmax)” value was 0 h. Besides, in series [1] (setting [8]), the “Avg. AUC” value amounted to 20.4 µg·min/mL, the “Avg. Cmax” value was found to be 1300 ng/mL and the Tmax was determined as 0 h. Moreover, the “effects on skin mast cell degranulation (wheal and flare)” value with wheal and flare reaction is “no significant effects”. Besides, the “time within which plasma concentrations declined to negligible levels” value in series [2] (after each drug administration) is not above 4 h. For the same molecule, in series [2] (cromolyn administered without SNAC), the “oral absorption (plasma concentration)” value was less than 2.3 ng/mL. Also, the mean plasma concentrations entry in series [2] (cromolyn given in combination with 600 mg SNAC) is listed as “up to 65 ng/mL”. For the same molecule, the “time of peak concentrations after drug administration” value in series [2] (cromolyn given orally in combination with SNAC, fasting male volunteers) was “approximately 20 minutes”. The molecule further had a plasma half-life in series [2] (multiple dose study) of approximately 45 min. For the same molecule, in series [3] (100 mg/kg cromolyn and 300 mg/kg delivery agent 12 hours prior to challenge), the “mean protection vs. the peak control response” value is 77%. For the same molecule, the “P-Acaris % (change in airway resistance)” value in series [3] (Drug Trial, Means, 300 mg/kg CR-1 & 100 mg/kg Cromolyn oral 12 hrs. before Ag. challenge) is listed as “approximately 157%”. Also, in series [4], the solubility in water entry was “freely soluble in water”. Moreover, the “dose eliminated unchanged in the feces” value in series [5] (in vivo) is recorded as “Roughly 98%”. Besides, the absolute bioavailability result in series [5] (inhalation dose of 20 mg) is listed as “about 8%”. The “inhaled dose that reaches the lungs” value in series [5] (inhalation) is given as 5-10%. Moreover, the systemic bioavailability entry in series [5] (oral cromolyn without the delivery agents) was “approximately 1%”. Further, in series [6], the mean elimination half-life fell in the range of 60 to 120 min and the “time of maximum plasma concentrations post-dose” value is listed as “about 20 minutes”.

Take `O=C([O-])CCCCCCCNC(=O)c1ccccc1O.[Na+]` [SNAC, Sodium N-[8-(2-hydroxybenzoyl)amino]caprylate]: in series [2] (male, human, in vivo), the Tmax was approximately 30 min and the half-life was approximately 25 min. Besides, in series [2] (twice daily dosing), the “accumulation during multiple dose treatment” value is listed as “no accumulation”. The “effect on human subjects” value in series [7] is “did not display any significant effect”.

As a reminder, the Tmax is the time from dosing to the highest level. Usually half-life stands for how long it takes for the measured level to halve. Low readings indicate rapid decline, high ones slow decline.

(Values after patent US20040259952A1 (priority 2001, published 2004).)
